Experimental data as given in article PMC12663294 (Nature Communications, 2025).
Read-outs that look alike come from different tables or passages of the source.

How the values were obtained:
[1] = molecular target: T1, recombinant An. coluzzii Coeae6g (Anopheles coluzzii, UniProt A0A6E8VQK1); experiment: Insecticide inhibition of α-NA hydrolysis by recombinant Coeae6g; type: biochemical; conditions: for IC50 (μΜ) (95% CI) of α-NA hydrolysis: 10 min pre-incubation, α-NA at Km, Sf9 homogenate expressing Coeae6g
T1 sequence (A0A6E8VQK1 1-582): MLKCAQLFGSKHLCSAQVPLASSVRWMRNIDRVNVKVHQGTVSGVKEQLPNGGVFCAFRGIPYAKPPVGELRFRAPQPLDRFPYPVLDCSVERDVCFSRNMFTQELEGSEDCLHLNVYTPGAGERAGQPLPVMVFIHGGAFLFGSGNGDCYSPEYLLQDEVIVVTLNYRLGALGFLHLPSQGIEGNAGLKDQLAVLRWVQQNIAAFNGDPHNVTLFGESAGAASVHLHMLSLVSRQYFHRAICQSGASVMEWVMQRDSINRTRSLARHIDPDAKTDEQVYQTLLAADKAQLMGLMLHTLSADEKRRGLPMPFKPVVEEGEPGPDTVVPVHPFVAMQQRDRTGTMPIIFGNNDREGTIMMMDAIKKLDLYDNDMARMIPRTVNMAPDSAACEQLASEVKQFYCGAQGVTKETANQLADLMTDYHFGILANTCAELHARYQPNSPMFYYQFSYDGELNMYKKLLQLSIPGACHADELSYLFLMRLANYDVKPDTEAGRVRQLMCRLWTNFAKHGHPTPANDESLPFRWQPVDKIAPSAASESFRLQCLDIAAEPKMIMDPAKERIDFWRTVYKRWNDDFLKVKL

[2] = test system: A11 parental line mosquitoes; experiment: WHO tube/adult bioassays; type: in vivo, Anopheles gambiae; conditions: exposure for 10 and 15 min, three replicates
[3] = test system: GAL4/UAS-AncCoeae6g mosquitoes; experiment: WHO tube/adult bioassays
[4] = test system: active serine hydrolases (FP-reactive bands, ~62–70 kDa) in An. gambiae homogenates; type: biochemical, Anopheles gambiae (Kisumu strain)
[5] = test system: GAL4/UAS-AngCoeae6g mosquitoes; experiment: WHO tube/adult bioassays; design: species or system Anopheles gambiae; conditions: in vivo
[6] = test system: GAL4/UAS-AncCoeae6g mosquitoes; conditions: in vivo
[7] = molecular target: T1, recombinant An. coluzzii Coeae6g; type: biochemical; conditions: for fold increased esterase activity compared to YFP-expressing and uninfected Sf9 cells: resuspended cell pellets expressing Coeae6g; for Km: read-out: Km (95% CI); for Km / Vmax (95% CI): substrate of recombinant Coeae6g (Sf9-Coeae6g)
[8] = test system: whole extracts of An. gambiae Coeae6g overexpressing mosquitoes; experiment: Total esterase activity of whole mosquito extracts towards model substrates; type: biochemical, Anopheles gambiae

CNC(=O)Oc1cccc2c1OC(C)(C)O2 [Bendiocarb, bendiocarb]
IC50 [1]: 7.27 µM

CC1(C)[C@H](C(=O)O[C@H](C#N)c2cccc(Oc3ccccc3)c2)[C@@H]1C=C(Br)Br [Deltamethrin, deltamethrin]
IC50 [1]: > 450 µM | IC50 (μΜ) (95% CI) of α-NA hydrolysis [1]: no inhibition | Mortality [2]: 100% | Mortality ([3]; exposure for 10 and 15 min, three replicates): 100%

CCOC(=O)CC(SP(=O)(OC)OC)C(=O)OCC (centres unmarked) [Malaoxon, malaoxon]
IC50 [1]: 0.24 µM

CCOC(=O)CC(SP(=S)(OC)OC)C(=O)OCC (centres unmarked) [Malathion, malathion]
IC50 [1]: > 45 µM | IC50 (μΜ) (95% CI) of α-NA hydrolysis [1]: No inhibition

CCN(CC)c1nc(C)cc(OP(=S)(OC)OC)n1 [PM, pirimiphos-methyl]
T-FP labelling of distinct ~90 kDa band [4]: not affected | T-FP labelling of prominent bands at ~62–70 kDa [4]: markedly reduced | IC50 ([4]; read-out: IC₅₀ (FP-TAMRA labelled ~62–70 kDa band intensity)): ~10.6 µM | IC50 (μΜ) (95% CI) of α-NA hydrolysis [1]: No inhibition | Mortality rate [5]: 67% | Mortality rate ([3]; in vivo): 79%

CC1(C)C(C=C(Cl)Cl)C1C(=O)OCc1cccc(Oc2ccccc2)c1 (centres unmarked) [Permethrin, permethrin]
IC50 [1]: 130 µM | Mortality rate [6]: 81.8%

CNC(=O)Oc1ccccc1OC(C)C [Propoxur, propoxur]
IC50 [1]: 3.52 µM

CC(=O)Oc1ccc([N+](=O)[O-])cc1 [p-NPA, p-nitrophenyl acetate]
fold increased esterase activity compared to YFP-expressing and uninfected Sf9 cells [7]: 8-12 fold | fold higher total carboxylesterase activity than control parental mosquitoes [8]: 2.9 fold

CC(=O)Oc1cccc2ccccc12 [α-NA, α-naphthyl acetate]
Km [7]: 68.5 µM | fold increased esterase activity compared to YFP-expressing and uninfected Sf9 cells [7]: 8-12 fold | Vmax (95% CI) [7]: 307.7 nmol min^−1 mg total protein^−1

CC(=O)Oc1ccc2ccccc2c1 [β-NA, β-naphthyl acetate]
Km [7]: 369 µM | fold increased esterase activity compared to YFP-expressing and uninfected Sf9 cells [7]: 8-12 fold | Vmax (95% CI) [7]: 253.0 nmol min^−1 mg total protein^−1 | fold higher total carboxylesterase activity than control parental mosquitoes [8]: 2.3 fold
